Laboratory results as given in patent publication US6812036B2 (priority 2000, dated 2004).

Test system: Antibody #1
Type: binding, mice

SMILES | cross-reactivity
CC(=O)OC[C@]12[C@H](O)C(=O)C(C)=C[C@H]1O[C@@H]1[C@H](O)C[C@@]2(C)[C@]12CO2 [15-acetyl-deoxynivalenol] | 358%
CC(=O)OC[C@]12C[C@H](OC(=O)CC(C)C)C(C)=C[C@H]1O[C@@H]1[C@H](O)[C@@H](O)[C@@]2(C)[C@]12CO2 [HT-2 toxin] | 9%
